Data published in ChEMBL document CHEMBL1158939, “Auranticins A and B: two new depsidones from a mangrove isolate of the fungus Preussia aurantiaca” (J Nat Prod, 1991).
Activity calls are given as the source filed them. The rule behind the calls is not given here.

Assays:
Staphylococcus aureus = assay: Antimicrobial activity against Staphylococcus aureus at 50 ug/disk; type: functional, organism-based
Bacillus subtilis = assay: Antimicrobial activity against Bacillus subtilis at 5 ug/disk; type: functional, organism-based

| Structure (SMILES) | Activity (Staphylococcus aureus) | Activity (Bacillus subtilis) |
| --- | --- | --- |
| C/C=C(\C)c1cc(OC)c(C)c2c1Oc1c(C=O)c(O)cc(/C(C)=C/C(=O)O)c1C(=O)O2 | Active | Active |
| C/C=C(\C)c1cc(OC)c(C)c2c1Oc1c(CO)c(O)cc(/C(C)=C/C(=O)O)c1C(=O)O2 | Active | Active |
